Test system: differentiated hBMSc
Assay: Effect of IL-1β and cabergoline on GDNF production and secretion (ELISA)
Type: cell-based, human
Settings: cabergoline 130 pg/ml, IL-1β 100 pg/ml, added 24 hours after initiation of differentiation, 48 hours
Procedure: Astrocyte differentiation: To induce astrocyte differentiation, 1×10^6 cells were cultured in […]. Cells were replaced with pre-differentiation medium for 48 hours (DMEM supplemented with SPN, 2 mM L-glutamine, 20 ng/ml human epidermal growth factor hEGF (R& D, Systems, Minneapolis, Minn.), 20 ng/ml human basic fibroblast growth factor (hbFGF) and N2 supplement (insulin 5 μg/ml, progesterone 20 nM, putrescin 100 μM, selenium 30 nM, transferrin 100 μg/ml). After 48 hours, the pre-differentiation medium was changed to differentiation medium, (DMEM supplemented with SPN, 2 mM L-glutamine, 1 mM dibutyryl cyclic AMP dbcAMP, 0.5 mM isobutylmethylxanthine IBMX (Sigma-Aldrich, St. Louis, Mo., USA), 5 ng/ml human platelet derived growth factor PDGF (peprotech), and 50 ng/ml human neuregulin 1-β1 NRG1-β1-GGF-2). […]
GDNF and BDNF analysis: At the end of the differentiating procedure described above, supernatant was collected from the plate and cells were harvested and counted. The amount of GDNF or BDNF in the cell's lysate and culture supernatants was quantified by using a GDNF or BDNF ImmunoAssay System (Promega) according to the manufacture's protocol. The absorbance at 450 nm was recorded on the Microplate Reader (BioRad Model 550) and the values were used to produce the curve of the GDNF or BDNF standard. […] ELISA results were calculated according to 10^6 cells per plate.

Molecule	production and secretion of GDNF by differentiated cells following addition
C=CCN1C[C@H](C(=O)N(CCCN(C)C)C(=O)NCC)C[C@@H]2c3cccc4[nH]cc(c34)C[C@H]21 [cabergoline]	marked enhanced production and secretion of GDNF
IL-1beta: factor known to upregulate GDNF, added to the differentiation medium	marked enhanced production and secretion of GDNF

— US10869899B2, “Isolated cells and populations comprising same for the treatment of CNS diseases” (Ramot at Tel-Aviv University Ltd., priority 2005, dated 2020)
